# Assay results from patent US20130096160A1, “ARYLTHIAZOLYL PIPERIDINES AND RELATED COMPOUNDS AS MODULATORS OF SURVIVAL MOTOR NEURON (SMN) PROTEIN PRODUCTION” (Secretary, Department of Health and Human Services, priority 2010, published 2013).
# Assays:
# SMN2-luciferase reporter = SMN2-luciferase reporter qHTS assay; assay type: cell-based, human; parameters: key to Curve Class: A curve class of 1.1 is a full agonist/antagonist; a curve class of 4 indicates the compound is inactive; settings: for Curve Class: agonist/antagonist character of the concentration-response, lower values = more significant concentration-response; for Increased SMN2 activity: percent increase (or decrease) in SMN2 levels compared to control in which no test compound is added
# How it was run: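 SMN2 exon-7 splicing firefly-luciferase reporter cell line, ~2000 cells/well in phenol-red-free DMEM with 10% serum, allowed to adhere 10–12 h, then exposed to compounds for 2 days at 37 C, 5% CO2. Seven-point five-fold dilution series (e.g. 50 μM to 3.2 nM), OneGlo luminescence read, curves fitted to Hill equation.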
# [1] = mouse, microsomes, 1 h, 1 μM, pH 7.4
# Description: The test agent is incubated at 1 μM in duplicate with mouse microsomes at 37° C. for 60 min. The reaction contains 0.3 mg/mL microsomal protein in 100 mM potassium phosphate, 2 mM NADPH, 3 mM MgCl2, pH 7.4. A control is run for each test agent omitting NADPH to detect NADPH-free degradation. At indicated times, an aliquot is removed from each experimental and control reaction and mixed with an equal volume of ice-cold Stop Solution (0.3% acetic acid in acetonitrile containing haloperidol, diclofenac, or other internal standard). Stopped reactions are incubated at least ten minutes at −20° C., and an additional volume of water is added.
# The samples are centrifuged to remove precipitated protein, and the supernatants are analyzed by LC/MS/MS, as described above, to quantitate the remaining parent. Data are reported as % remaining by dividing by the time zero concentration value.
# human SMN protein = assay: Western blot of SMN protein in SMA patient fibroblasts (3813); assay type: cell-based; settings: 3813 fibroblasts, quantitative western blotting, FIG. 4; for SMN protein level versus dose (in words): different doses
# Description: Type I spinal muscular atrophy (SMA)-affected human primary fibroblasts (#GM03813) and carrier parents (#GM03814, parent and #GM03815, […]) are obtained live with low passage number from Coriell Cell Repositories. […] For detection of SMN protein in patient fibroblasts, 8,000 cells per cm^2 are plated 24 hours prior to drug addition. Fresh media and compound are added every 24 hours. After 72 hours, cells are harvested, washed with cold PBS, and lysed. Samples are subjected to polyacrylamide gel electrophoresis (PAGE). It is determined that 10 μg total protein per lane is within the linear range for immunoblot detection of SMN and alpha-tubulin. Western blots of the gel are probed for SMN with the 4B7 mouse monoclonal antibody (from the lab of Christian Lorson). A goat anti-mouse antibody (Santa Cruz Biotechnology/#sc-2005) conjugated to horseradish peroxidase (HRP) is used as the secondary antibody. Quantification of protein is performed by detecting chemiluminescence with a Fujifilm LAS-4000 Multifunctional Imaging System. […] We incubated a fibroblast cell line from a type I SMA patient (3813 cell line) with different doses of analogues and assessed the SMN protein level by quantitative western blotting (FIG. 4). We observed that analogue 8 m at concentration of 37 nanomolar increased the SMN protein level by 2-3 fold. […] This could be due with the intrinsic mechanism of action or to other causes, such us concentration dependent compound solubility.
# [2] = test system: SMN positive foci or gems in the nucleus; assay: Gem count in human type I SMA fibroblasts; assay type: cell-based; settings: 3 days, FIG. 5; for number of gems versus dose (in words): 37 nM-3000 nM
# Source text: Furthermore, the increase in SMN protein production led us to explore whether the arylpiperidine analogues had effect of on the overall number of SMN positive foci or gems in the nucleus. This would corroborate that the increased protein amounts represent indeed functional SMN protein. SMN protein is predominately a cytoplasmic protein in the nucleous SMN which localized to in distinct punctuate bodies often referred to as gems (gemini of coiled [Cajal] bodies). There is a direct correlation between the number of gems and total SMN protein production in the cell. Gem counts are commonly used as another metric to score the amount total SMN protein expressed on a cell-to-cell basis. […] Only 3.3% of nuclei have gems in fibroblast cells from SMA type I patients (cell line 3813), while 24.8% of nuclei have gems in fibroblast from a carrier parent (3814 cell line). We treated human type I SMA fibroblasts with increasing doses (37 nM 3000 nM) of arylpiperidine analogues 8a, 8m, and 9a for 3 days and the number of gems per 100 nuclei were examined (FIG. 5). Analogue 8m treatment yielded more than 2 fold of increase of the number of the gems at low 37 nM dose.
# in vitro = in vitro ADME; settings: human, Caco-2
# Description: CaCo-2 cells grown in tissue culture flasks are trypsinized, suspended in medium, and the suspensions are applied to wells of a collagen-coated BioCoat Cell Environment in 24-well format (BD Biosciences) at 24,500 cells per well. The cells are allowed to grow and differentiate for three weeks, feeding at 2-day intervals.
# For Apical to Basolateral (A->B) permeability, the test agent is added at 50 μM to the apical (A) side and amount of permeation is determined on the basolateral (B) side; for Basolateral to Apical (B>A) permeability, the test agent is added at 50 μM to the B side and the amount of permeation is determine on the A side. The A-side buffer contains 100 μM Lucifer yellow dye, in Transport Buffer (1.98 g/L glucose in 10 mM HEPES, 1× Hank's Balanced Salt Solution) pH 6.5, and the B-side buffer is Transport Buffer, pH 7.4. CaCo-2 cells are incubated with these buffers for 2 h., and the receiver side buffer is removed for analysis by liquid chromatography-mass spectrometry (LC/MS/MS).
# Additionally, several control compounds are tested in the identical assay.
# To verify that CaCo-2 cell monolayers are properly formed, aliquots of the cell buffers are analyzed by fluorescence to determine the transport of the impermeable dye Lucifer Yellow.
# Data are expressed as permeability (Papp): […]
# where dQ/dt is the rate of permeation, C0 is the initial concentration of test agent, and A is the area of the monolayer.
# In bidirectional permeability studies, the asymmetry index (AI) or efflux ratio is also calculated:
# An AI>1 indicated a potential substrate for PGP or other active transporters.
# Samples are analyzed by LC/MS/MS using either an Agilent 6410 mass spectrometer coupled with an Agilent 1200 high performance liquid chromatography (HPLC) and a CTC PAL chilled autosampler, all controlled by MassHunter software (Agilent), or an ABI2000 mass spectrometer coupled with an Agilent 1100 HPLC and a CTC PAL chilled autosampler, all controlled by Analyst software (ABI). After separation on a C18 reverse phase HPLC column (Agilent, Waters, or equivalent) using an acetonitrile-water gradient system, peaks are analyzed by mass spectrometry (MS) using electrospray ionization (ESI) in multiple reaction monitoring (MRM) mode.
# The signal is optimized for each compound by ESI positive or negative ionization mode. A MS2 selected ion monitoring (SIM) scan is used to optimize the precursor ion and a product ion analysis is used to identify the best fragment for analysis and to optimize the collision energy.
smiles,measurement,setting,value
"NC(=O)C1CCN(c2nc(-c3ccc(Br)cc3)cs2)CC1 [Example 23, 1-(4-(4-Bromophenyl)Thiazol-2-yl)Piperidine-4-Carboxamide]",Curve Class,SMN2-luciferase reporter,1.1
same,Increased SMN2 activity,SMN2-luciferase reporter,267.7%
same,Minus NADPH Parent remaining 1st,[1],68%
same,Minus NADPH Parent remaining 2nd,[1],51%
same,Minus NADPH Parent remaining mean,[1],59%
same,Plus NADPH Parent remaining 1st,[1],55%
same,Plus NADPH Parent remaining 2nd,[1],43%
same,Plus NADPH Parent remaining mean,[1],49%
"NC(=O)C1CCN(c2nc(-c3ccc4c(c3)OCCO4)cs2)CC1 [Example 48, 1-(4-(2,3-Dihydrobenzo[B][1,4]Dioxin-6-yl)Thiazol-2-yl)Piperidine-4-Carboxamide]",Curve Class,SMN2-luciferase reporter,1.1
same,Increased SMN2 activity,SMN2-luciferase reporter,459%
same,Minus NADPH Parent remaining 1st,[1],16%
same,Minus NADPH Parent remaining 2nd,[1],15%
same,Minus NADPH Parent remaining mean,[1],16%
same,Plus NADPH Parent remaining 1st,[1],1%
same,Plus NADPH Parent remaining 2nd,[1],0%
same,Plus NADPH Parent remaining mean,[1],1%
"CN(C)c1cccc(-c2csc(N3CCC(C(N)=O)CC3)n2)c1 [Example 63, 1-(4-(3-(Dimethylamino)Phenyl)Thiazol-2-yl)Piperidine-4-Carboxamide]",Curve Class,SMN2-luciferase reporter,1.1
same,Increased SMN2 activity,SMN2-luciferase reporter,504%
same,Minus NADPH Parent remaining 1st,[1],69%
same,Minus NADPH Parent remaining 2nd,[1],66%
same,Minus NADPH Parent remaining mean,[1],67%
same,Plus NADPH Parent remaining 1st,[1],0%
same,Plus NADPH Parent remaining 2nd,[1],0%
same,Plus NADPH Parent remaining mean,[1],0%
"O=C(O)C1CCN(c2nc(-c3ccc(Br)cc3)cs2)CC1 [Example 69, 1-(4-(4-Bromophenyl)Thiazol-2-yl)Piperidine-4-Carboxylic Acid]",Curve Class,SMN2-luciferase reporter,1.1
same,Increased SMN2 activity,SMN2-luciferase reporter,554.58%
same,Minus NADPH Parent remaining 1st,[1],90%
same,Minus NADPH Parent remaining 2nd,[1],101%
same,Minus NADPH Parent remaining mean,[1],95%
same,Plus NADPH Parent remaining 1st,[1],76%
same,Plus NADPH Parent remaining 2nd,[1],85%
same,Plus NADPH Parent remaining mean,[1],81%
"Cc1ccc(-c2cnc(N3CCC(C(N)=O)CC3)s2)cc1 [Example 119, 1-(5-P-Tolylthiazol-2-yl)Piperidine-4-Carboxamide]",Curve Class,SMN2-luciferase reporter,1.1
same,Increased SMN2 activity,SMN2-luciferase reporter,609.4%
same,SMN protein level versus dose (in words),human SMN protein,up-regulation of SMN protein at concentrations ranging between 37 nM and 333 nM
"CC(C)Oc1cccc(-c2cnc(N3CCC(C(N)=O)CC3)s2)c1 [Example 123, 1-(5-(3-Isopropoxyphenyl)Thiazol-2-yl)Piperidine-4-Carboxamide]",Curve Class,SMN2-luciferase reporter,1.1
same,Increased SMN2 activity,SMN2-luciferase reporter,709.6%
same,SMN protein level versus dose (in words),human SMN protein,up-regulation of SMN protein at concentrations ranging between 37 nM and 333 nM
"NC(=O)C1CCN(c2ncc(-c3ccc4c(c3)OCCCO4)s2)CC1 [Example 124, 1-(5-(3,4-Dihydro-2H-Benzo[B][1,4] Dioxepin-7-yl)Thiazol-2-yl)Piperidine-4-Carboxamide]",Curve Class,SMN2-luciferase reporter,1.1
same,Increased SMN2 activity,SMN2-luciferase reporter,370.5%
same,number of gems versus dose (in words),[2],didn't show any activity
"CSc1ccc(-c2cnc(N3CCC(C(N)=O)CC3)s2)cc1 [Example 134, 1-(5-(4-(Methylthio)Phenyl)Thiazol-2-yl)Piperidine-4-Carboxamide]",Curve Class,SMN2-luciferase reporter,1.1
same,Increased SMN2 activity,SMN2-luciferase reporter,576.1%
same,increase of the number of the gems,[2]; 37 nM,more than 2 fold
same,number of gems versus dose (in words),[2],"With the concentration increased, the numbers of gems was reduced"
same,increase of SMN protein level,human SMN protein; 37 nanomolar,2-3 fold
same,SMN protein level versus dose (in words),human SMN protein,decreased with the increasing of the drug concentration
"O=C(O)C1CCN(c2ncc(-c3ccc4c(c3)OCCCO4)s2)CC1 [Example 148, 1-(5-(3,4-Dihydro-2H-Benzo[B][1,4]Dioxepin-7-yl)Thiazol-2-yl)Piperidine-4-Carboxylic Acid]",Curve Class,SMN2-luciferase reporter,1.1
same,Increased SMN2 activity,SMN2-luciferase reporter,325.6%
same,increase of the gem numbers,[2]; 37 nM to 1000 nM,80%
same,number of gems versus dose (in words),[2],slightly decreased at 3000 nM
same,SMN protein level versus dose (in words),human SMN protein,dose-dependent trend between 37 nM to 1 μM concentration and a decrease of protein level at 3 μM
"O=C(Nc1ccccc1)C1CCN(c2ncc(-c3ccc4c(c3)OCCCO4)s2)CC1 [Example 151, 1-(5-(3,4-Dihydro-2H-Benzo[B][1,4]Dioxepin-7-yl)Thiazol-2-yl)-N-Phenylpiperidine-4-Carboxamide]",Curve Class,SMN2-luciferase reporter,1.1
same,Increased SMN2 activity,SMN2-luciferase reporter,353%
same,SMN protein level versus dose (in words),human SMN protein,up-regulation of SMN protein at concentrations ranging between 37 nM and 333 nM
"CNC(=C[N+](=O)[O-])NCCSCc1ccc(CN(C)C)o1 [Ranitidine, ranitidine, reference compound]","Papp A→B at 2 h, 10 μM",in vitro,0.42 ×10⁻⁶ cm/s
"CC(=O)CC(c1ccccc1)c1c(O)c2ccccc2oc1=O (stereo not shown) [Warfarin, reference compound]","Papp A→B at 2 h, 10 μM",in vitro,45.8 ×10⁻⁶ cm/s
same,"Papp B→A at 2 h, 10 μM",in vitro,11.7 ×10⁻⁶ cm/s
